Source: patent publication US20240173346A1, “LINE-1 INHIBITORS TO TREAT CNS AND SYSTEMIC DISEASES” (TRANSPOSON THERAPEUTICS, INC., priority 2021, published 2024)
Where a name gives a salt, the structure may show the parent alone. Read-outs that look alike come from different tables or passages of the source.

System: human LINE-1
Assay: Human LINE-1 retrotransposition assay (HeLa cell-based dual-luciferase reporter, plasmid pYX017)
Details: HeLa cells; for IC50: 72 h incubation
Method: Islatravir and other compounds were tested for inhibition of retrotransposition activity of human LINE-1 in HeLa cells according to the following procedure.
HeLa cervical cancer cells were cultivated at 37° C. in a humidified 5% CO2 incubator in Dulbecco's Modified Eagle's Medium (DMEM)—high glucose, with 4500 mg/L glucose, L-glutamine, sodium pyruvate and sodium bicarbonate (Sigma), supplemented with 10% of heat inactivated fetal bovine serum (Thermo Fisher).
Assays were performed using reporter plasmid pYX017 as described (Xie, et al., 2011) with several modifications. The reporter assay was performed in 96-well white optical bottom plates. HeLa cells were seeded in wells 24 h prior to transfection and compound treatment so that cells were approximately 30% confluent on the day of transfection. Different cell plating densities were tested and a density of 2×10^3 cells was determined to be optimal.
Compounds were resuspended in DMSO. Serial dilutions (1:3) were prepared in DMSO. Medium containing different concentrations of the compounds were prepared by adding 2 μl of the compound dilution to 1 ml of the culture medium. The final concentration of DMSO in the medium was 0.2%.
FuGENE® HD transfection reagent (Promega, E2311, Lot 382574 and Lot 397842) was used to transfect the plasmids into the cells. The transfection reagent: DNA mixture was prepared in OpiMEM (Thermo Fisher) according to manufacturer's instructions. Different ratios of transfection reagent to DNA were tested and a ratio of 3:1 was determined to be optimal. Culture medium was removed from the cells and discarded. The transfection reagent: DNA mixture (5 μl) was mixed with the compound containing medium (100 μl/well) and this was added onto the cells of each well. Cells were incubated at 37° C./5% CO2 for different incubation time. A 72 h incubation time was determined to be optimal.
Luciferase reporter activity was quantified with the Dual-Luciferase® Reporter Assay System (Promega) according to manufacturer's instructions for multiwell plates except that cells were lysed directly on the multiwell plate with 30 μl of the passive lysis buffer (PLB) for 20 min at room temperature, with gentle shaking to ensure complete cell lysis.
Firefly and Renilla luciferase signals were measured using a SpectraMax i3x Multi-Mode Microplate Reader. Integration times of 100 ms and 10 ms were used to measure the Firefly and Renilla signals respectively. Relative L1 activity is calculated as Firefly/Renilla *1000 or Firefly/Renilla *10,000. Dose response inhibition data were fit to a four parameter logistic equation using non-linear regression (using Graphpad Prism 8), to determine IC50 values for each inhibitor.

[1] = Homo sapiens, Firefly/Renilla luciferase, experiment 1, read-out: Human LINE-1 IC50, Exp. 1
[2] = Homo sapiens, Firefly/Renilla luciferase, experiment 3, read-out: Human LINE-1 IC50, Exp. 3
[3] = Homo sapiens, Firefly/Renilla luciferase, experiment 4, read-out: Human LINE-1 IC50, Exp. 4
[4] = Homo sapiens, average of n = 2-4 experiments, read-out: Human LINE-1 IC50, Average
[5] = Homo sapiens, compounds of Table 1 (Table 4), read-out: Human LINE-1 IC50
[6] = Homo sapiens, Firefly/Renilla luciferase, experiment 2, read-out: Human LINE-1 IC50, Exp. 2

SMILES | IC50 [2] [nM] | IC50 [3] [nM] | also measured
Nc1nc(=O)n([C@@H]2C=C[C@H](CO)O2)cc1F [Elvucitabine] | 80 | 110 | IC50 [1]: 90 nM; IC50 [4]: 90 nM
CC[C@]1(CO)O[C@@H](n2cc(C)c(=O)[nH]c2=O)C[C@@H]1O [compound 19] | – | – | IC50 [5]: 2000 nM
C#C[C@]1(CO)O[C@@H](n2cnc3c(N)nc(F)nc32)C[C@@H]1O [Islatravir, 2′-deoxy-4′-ethynyl-2-fluoroadenosine] | – | – | IC50 [4]: 1.3 nM
Nc1ccn([C@@H]2CS[C@H](CO)O2)c(=O)n1 [Lamivudine] | 570 | 340 | IC50 [1]: 790 nM; IC50 [6]: 870 nM
C=C[C@]1(CO)O[C@@H](n2ccc(N)nc2=O)C[C@@H]1O [compound 18] | – | – | IC50 [5]: 8 nM
CC[C@]1(CO)O[C@@H](n2cnc3c(O)nc(N)nc32)C[C@@H]1O [compound 20] | – | – | IC50 [5]: 3 nM
C#C[C@]1(CO)O[C@@H](n2cc(C)c(N)nc2=O)C[C@@H]1O [compound 6] | – | – | IC50 [5]: 18600 nM
Nc1ccn([C@H]2CO[C@@H](CO)S2)c(=O)n1 [Apricitabine] | 7690 | 5220 | IC50 [4]: 6460 nM
C[C@H](Cn1cnc2c(N)ncnc21)OCP(=O)(O)O [Tenofovir] | – | – | IC50 (Firefly/Renilla luciferase, experiment 3, read-out: Human LINE-1 IC50, Exp. 3): 3310 nM; IC50 (Firefly/Renilla luciferase, experiment 4, read-out: Human LINE-1 IC50, Exp. 4): 2230 nM
Cc1cn([C@H]2C=C[C@@H](CO)O2)c(=O)[nH]c1=O [Stavudine] | 780 | 710 | –
Nc1nc(=O)n([C@@H]2CS[C@H](CO)O2)cc1F [Emtricitabine] | 1390 | 1300 | –

Continued, in another order:

IC50 [2] [nM] | IC50 [3] [nM] | SMILES | also measured
140 | 260 | CC(C)OC(=O)OCOP(=O)(CO[C@H](C)Cn1cnc2c(N)ncnc21)OCOC(=O)OC(C)C [Tenofovir disoproxil] | –
16800 | 17400 | Nc1nc(NC2CC2)c2ncn([C@H]3C=C[C@@H](CO)C3)c2n1 [Abacavir sulfate] | –
80 | – | C#C[C@@]1(CO)C=C[C@H](n2cc(C)c(=O)[nH]c2=O)O1 [Censavudine, 4′-ethynylstavudine] | human LINE-1 inhibitor activity compared to the other reverse transcriptase inhibitory drugs tested (comparison in words): unexpectedly better human LINE-1 inhibitor activity; IC50 [6]: 90 nM; IC50 [4]: 70 nM
